In PubChem BioAssay (NCI):
Values joined by “and” are separate entries in the source; they are usually repeats but may differ in a detail not shown here. Equal values may be shown once.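 In this assay, cells in 96-well plates receive the compound at five concentrations for 48 hours. Endpoints are linearly interpolated between the surrounding concentrations. GI50 marks 50% less growth. The concentration for full growth arrest is given as TGI.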

Columns and labels:
Assay in all cases: inhibition of tumour cell growth, NCI panel, 48 h
DU-145 prostate = test system: DU-145 prostate
HCC-2998 colon = test system: HCC-2998 colon
HCT-15 colon = test system: HCT-15 colon
HL-60(TB) leukemia = test system: HL-60(TB) leukemia
KM12 colon = test system: KM12 colon
MDA-MB-435 = test system: MDA-MB-435
NCI-H23 lung = test system: NCI-H23 lung
NCI-H460 lung = test system: NCI-H460 lung
OVCAR-4 ovarian = test system: OVCAR-4 ovarian
U251 CNS = test system: U251 CNS

`Cc1nnc(-c2ccc(C)c(-c3ccc(C(=O)Nc4cccc(C#N)c4)cc3)c2)o1` was tested, and the GI50 (DU-145 prostate) was > 25 µM, the TGI (DU-145 prostate) was > 25 µM and the GI50 (HCC-2998 colon) was > 25 µM. For the same compound, the TGI (HCC-2998 colon) was > 25 µM, the GI50 (HCT-15 colon) was > 25 µM and the TGI (HCT-15 colon) was > 25 µM. The GI50 (HL-60(TB) leukemia) was > 25 µM, the TGI (HL-60(TB) leukemia) was > 25 µM and the GI50 (KM12 colon) was > 25 µM. The TGI (KM12 colon) was > 25 µM, the GI50 (MDA-MB-435) was > 25 µM and the TGI (MDA-MB-435) was > 25 µM. For the same compound, the GI50 (NCI-H23 lung) was > 25 µM, the TGI (NCI-H23 lung) was > 25 µM and the GI50 (NCI-H460 lung) was > 25 µM. For the same compound, the TGI (NCI-H460 lung) was > 25 µM, the GI50 (OVCAR-4 ovarian) was 17.7 µM and the TGI (OVCAR-4 ovarian) was > 25 µM. The GI50 (U251 CNS) was > 25 µM and the TGI (U251 CNS) was > 25 µM.
`CNC(=O)OCc1c(COC(=O)NC)c(-c2ccc(-c3ccccc3)cc2)n(C)c1C` gave a TGI (DU-145 prostate) of 9.4 µM, a TGI (HCC-2998 colon) of 13.1 µM and a TGI (HCT-15 colon) of 9.43 µM. The TGI (HL-60(TB) leukemia) was 18.1 µM, the TGI (KM12 colon) was 24.9 µM and the TGI (MDA-MB-435) was 21.9 µM. For the same compound, the TGI (NCI-H23 lung) was 10.2 µM, the TGI (NCI-H460 lung) was 12.2 µM and the TGI (OVCAR-4 ovarian) was 10.9 µM. The TGI (U251 CNS) was 10.9 µM.
For `CCCCCCCCn1ccc2cc(NC(=O)Cn3cc(CN4CCCCCC4)nn3)ccc21`, the GI50 (DU-145 prostate) was 1.97 µM, the TGI (DU-145 prostate) was 3.81 µM and the GI50 (HCC-2998 colon) was 1.78 µM. The TGI (HCC-2998 colon) was 3.35 µM, the GI50 (HCT-15 colon) was 1.6 µM and the TGI (HCT-15 colon) was 3.17 µM. For the same compound, the GI50 (HL-60(TB) leukemia) was 1.87 µM, the TGI (HL-60(TB) leukemia) was 3.75 µM and the GI50 (KM12 colon) was 1.73 µM. The TGI (KM12 colon) was 3.27 µM, the GI50 (MDA-MB-435) was 1.69 µM and the TGI (MDA-MB-435) was 3.18 µM. It also gave a GI50 (NCI-H23 lung) of 1.76 µM, a TGI (NCI-H23 lung) of 3.77 µM and a GI50 (NCI-H460 lung) of 1.85 µM. The TGI (NCI-H460 lung) was 3.45 µM, the GI50 (OVCAR-4 ovarian) was 1.59 µM and the TGI (OVCAR-4 ovarian) was 3.13 µM. The GI50 (U251 CNS) was 1.83 µM and the TGI (U251 CNS) was 3.29 µM.
`N/N=C\c1c2ccccc2c(=O)n2c1oc1ccccc12` gave a GI50 (DU-145 prostate) of 10.6 µM, a TGI (DU-145 prostate) of 24.9 µM and a GI50 (HCC-2998 colon) of 16.5 µM. For the same compound, the TGI (HCC-2998 colon) was 30.5 µM, the GI50 (HCT-15 colon) was 17.3 µM and the TGI (HCT-15 colon) was 34.6 µM. The GI50 (HL-60(TB) leukemia) was 21.1 µM, the TGI (HL-60(TB) leukemia) was 50.9 µM and the GI50 (KM12 colon) was 14.6 µM. The TGI (KM12 colon) was 27.7 µM, the GI50 (MDA-MB-435) was 11.3 µM and the TGI (MDA-MB-435) was 23.8 µM. For the same compound, the GI50 (NCI-H23 lung) was 15.7 µM, the TGI (NCI-H23 lung) was 29.9 µM and the GI50 (NCI-H460 lung) was 5.47 µM. For the same compound, the TGI (NCI-H460 lung) was 18.4 µM, the GI50 (OVCAR-4 ovarian) was 13.1 µM and the TGI (OVCAR-4 ovarian) was > 100 µM. The GI50 (U251 CNS) was 14.6 µM and the TGI (U251 CNS) was 27.7 µM.
With `C=CC(=O)N1CCC(Oc2cc3c(Nc4ccc(Cl)c(Cl)c4F)ncnc3cc2OC)CC1` the TGI (DU-145 prostate) was 15.4 µM and > 10 µM, the GI50 (HCC-2998 colon) was 7.61 µM and 2.52 µM and the TGI (HCC-2998 colon) was 24.8 µM and > 10 µM. The GI50 (HCT-15 colon) was 2.52 µM and 2.23 µM, the TGI (HCT-15 colon) was 15.6 µM and > 10 µM and the GI50 (HL-60(TB) leukemia) was 8.97 µM and 3.77 µM. The TGI (HL-60(TB) leukemia) was 48.5 µM and > 10 µM, the GI50 (KM12 colon) was 7.96 µM and 4.12 µM and the TGI (KM12 colon) was 27.1 µM and > 10 µM. For the same compound, the GI50 (MDA-MB-435) was 2.23 µM and 1.8 µM, the TGI (MDA-MB-435) was 8.3 µM and 4.7 µM and the GI50 (NCI-H23 lung) was 4.52 µM and 3.18 µM. For the same compound, the TGI (NCI-H23 lung) was 21.7 µM and > 10 µM, the GI50 (NCI-H460 lung) was 11.1 µM and 5.88 µM and the TGI (NCI-H460 lung) was 33.2 µM and > 10 µM. For the same compound, the GI50 (OVCAR-4 ovarian) was 2.65 µM and 2.56 µM, the TGI (OVCAR-4 ovarian) was 31.5 µM and > 10 µM and the GI50 (U251 CNS) was 7.13 µM and 3.33 µM. For the same compound, the TGI (U251 CNS) was 27 µM and > 10 µM.
For `C=C(C)C1CC2(C)C(C)CC(O)CC2C(OC(=O)C=C(C)C)C1O` (stereo not given), the TGI (DU-145 prostate) was > 100 µM, the TGI (HCC-2998 colon) was > 100 µM and the TGI (HCT-15 colon) was > 100 µM. For the same compound, the TGI (HL-60(TB) leukemia) was 50.5 µM, the TGI (KM12 colon) was > 100 µM and the TGI (MDA-MB-435) was > 100 µM. For the same compound, the TGI (NCI-H23 lung) was > 100 µM, the TGI (NCI-H460 lung) was 57.2 µM and the TGI (OVCAR-4 ovarian) was > 100 µM. For the same compound, the TGI (U251 CNS) was > 100 µM.
For `NC(CSC(c1ccccc1)(c1ccccc1)c1ccccc1)C(=O)NCC(=O)O` (stereo not given), the GI50 (DU-145 prostate) was 18.9 µM, the TGI (DU-145 prostate) was > 100 µM and the GI50 (HCC-2998 colon) was 2.57 µM. The TGI (HCC-2998 colon) was 22.2 µM, the GI50 (HCT-15 colon) was 4.89 µM and the TGI (HCT-15 colon) was > 100 µM. It also gave a GI50 (HL-60(TB) leukemia) of 2.85 µM, a TGI (HL-60(TB) leukemia) of 12 µM and a GI50 (KM12 colon) of 3.96 µM. The TGI (KM12 colon) was 38.4 µM, the GI50 (MDA-MB-435) was 2.38 µM and the TGI (MDA-MB-435) was 6.8 µM. For the same compound, the GI50 (NCI-H460 lung) was 4.27 µM, the TGI (NCI-H460 lung) was 78.8 µM and the GI50 (OVCAR-4 ovarian) was 17.4 µM. The TGI (OVCAR-4 ovarian) was 95.6 µM, the GI50 (U251 CNS) was 3.64 µM and the TGI (U251 CNS) was 63.8 µM.
With `C=C1c2c(C)nn(-c3ccc(C#CCOC4OC(CO)C(O)C(O)C4O)cc3)c2N(C)C23C[C@H]1C1(C)c4c(C)nn(-c5ccc(C#CCOC6OC(CO)C(O)C(O)C6O)cc5)c4N(C)C(C)(C[C@H]12)C3` (stereo not given in full) the GI50 (DU-145 prostate) was 1.97 µM, the TGI (DU-145 prostate) was 5.16 µM and the GI50 (HCC-2998 colon) was 1.57 µM. The TGI (HCC-2998 colon) was 3.15 µM, the GI50 (HL-60(TB) leukemia) was 2.07 µM and the TGI (HL-60(TB) leukemia) was 4.43 µM. It also gave a GI50 (KM12 colon) of 1.44 µM, a TGI (KM12 colon) of 2.9 µM and a GI50 (MDA-MB-435) of 1.67 µM. The TGI (MDA-MB-435) was 3.77 µM, the GI50 (NCI-H23 lung) was 2.33 µM and the TGI (NCI-H23 lung) was 6.59 µM. The GI50 (NCI-H460 lung) was 1.69 µM, the TGI (NCI-H460 lung) was 3.85 µM and the GI50 (OVCAR-4 ovarian) was 1.68 µM. It also gave a TGI (OVCAR-4 ovarian) of 9.94 µM, a GI50 (U251 CNS) of 1.19 µM and a TGI (U251 CNS) of 2.59 µM.
In the case of `CCN(CC)CCNC(Cc1ccccc1)c1ccc(OCc2ccccc2)cc1` (stereo not given), the GI50 (DU-145 prostate) is reported as 8.54 µM, the TGI (DU-145 prostate) is reported as 21.1 µM and the GI50 (HCC-2998 colon) is reported as 5.17 µM. It also gave a TGI (HCC-2998 colon) of 17.4 µM, a GI50 (HCT-15 colon) of 3.36 µM and a TGI (HCT-15 colon) of 13 µM. The GI50 (HL-60(TB) leukemia) was 2.77 µM, the TGI (HL-60(TB) leukemia) was 7.79 µM and the GI50 (KM12 colon) was 5.22 µM. The TGI (KM12 colon) was 18.2 µM, the GI50 (MDA-MB-435) was 3.16 µM and the TGI (MDA-MB-435) was 11 µM. For the same compound, the GI50 (NCI-H460 lung) was 3.56 µM, the TGI (NCI-H460 lung) was 12.9 µM and the GI50 (OVCAR-4 ovarian) was 5.42 µM. The TGI (OVCAR-4 ovarian) was 19.4 µM, the GI50 (U251 CNS) was 3.41 µM and the TGI (U251 CNS) was 15.3 µM.
`CN(C)C/C=C/C(=O)Nc1ccc(C(=O)N[C@@]2(C)CCC[C@@H](Nc3ncc(Cl)c(-c4c[nH]c5ccccc45)n3)C2)nc1` was tested, and the GI50 (DU-145 prostate) was 0.0153 µM, the TGI (DU-145 prostate) was 1.09 µM and the GI50 (HCC-2998 colon) was < 0.01 µM. For the same compound, the TGI (HCC-2998 colon) was 0.164 µM, the GI50 (HCT-15 colon) was 0.0286 µM and the TGI (HCT-15 colon) was 1.05 µM. For the same compound, the GI50 (HL-60(TB) leukemia) was 0.0145 µM, the TGI (HL-60(TB) leukemia) was 0.0665 µM and the GI50 (KM12 colon) was 0.013 µM. The TGI (KM12 colon) was 0.194 µM, the GI50 (MDA-MB-435) was 0.0108 µM and the TGI (MDA-MB-435) was 0.112 µM. For the same compound, the GI50 (NCI-H23 lung) was < 0.01 µM, the TGI (NCI-H23 lung) was 0.0523 µM and the GI50 (NCI-H460 lung) was < 0.01 µM. It also gave a TGI (NCI-H460 lung) of 0.386 µM, a GI50 (OVCAR-4 ovarian) of 0.0141 µM and a TGI (OVCAR-4 ovarian) of 0.915 µM.
For `CN(C)CCOc1ccc([N+](=O)[O-])c2cccnc12`, the TGI (DU-145 prostate) was > 100 µM, the TGI (HCC-2998 colon) was > 100 µM and the TGI (HCT-15 colon) was > 100 µM. The TGI (HL-60(TB) leukemia) was > 100 µM, the TGI (KM12 colon) was > 100 µM and the TGI (MDA-MB-435) was > 100 µM. For the same compound, the TGI (NCI-H23 lung) was > 100 µM, the TGI (NCI-H460 lung) was > 100 µM and the TGI (U251 CNS) was > 100 µM.
